Assay results from patent US8778727B2, “Method of manufacturing organic electroluminescence display device” (Canon Kabushiki Kaisha, priority 2011, dated 2014).

Assays:
[1] = Etching (dissolution) of deposited layers by IPA/water mixed solvent; assay type: physicochemical; details: IPA 60 wt %; for etching rate: deposited film
Description: In the present invention, a larger etching rate means a higher dissolution rate. In addition, a larger etching rate means a higher solubility of a layer having a material of interest in the solvent (polar solvent).
FIG. 3 is a graph illustrating thickness changes in the compound 1 and the compound A2 over an etching time. Here, FIG. 3 illustrates the results of the etching of the respective layers when a mixed solvent obtained by mixing isopropyl alcohol (IPA) and water so that IPA may account for 60 wt % (hereinafter, sometimes referred to as “IPA/water mixed solvent”) is used as a solvent formed of a polar solvent.
When the etching rates of the respective layers are calculated with their etching conditions made identical to each other, the etching rate of the layer A is 0.008 nm/sec but the etching rate of the layer B is 0.87 nm/sec, that is, a ratio of the latter to the former is about 100.
Here, a ratio (n) between the etching rates of the organic compound layer (corresponding to the layer A) and the release layer (corresponding to the layer B) by the polar solvent can be represented like the following equation.
Performed next was a second processing step of removing a part of the release layer 30 with a mixed solvent obtained by mixing water and IPA so that an IPA concentration was 60 wt % to reduce the thickness of the release layer 30. It should be noted that as the etching rate of the compound (phenanthroline derivative represented by the formula (2)) constituting the release layer 30 in this example was 0.9 nm/sec, part of the release layer 30 was removed through immersion in the mixed solvent for 530 seconds so that the thinning was performed (FIG. 2M). As a result of the second processing step, the thickness of the release layer 30 became 20 nm. In addition, each release layer subjected to the thinning in the second processing step functions as the charge transport layer (electron transport layer) 23a, 23b, or 23c. Next, vacuum heating was performed at 80° C. so that the solvent remaining on the charge transport layer was removed.

[2] = Solubility in IPA/water mixed solvent (FIG. 4); assay type: physicochemical; details: IPA concentration 80 wt %; per 1 g solvent
Description: The solubility of a compound as a constituent material for each layer in the IPA/water mixed solvent varies depending on the weight ratio of IPA in the mixed solvent. FIG. 4 is a graph illustrating the solubilities of the compound 1 (condensed polycyclic hydrocarbon compound) and the compound A2 (heterocyclic compound) in the IPA/water mixed solvent (polar solvent). Here, in the graph of FIG. 4, the axis of abscissa indicates the weight percent concentration of IPA in the IPA/water mixed solvent, and the axis of ordinate indicates the amount of the condensed polycyclic hydrocarbon compound or heterocyclic compound to dissolve in 1 g of the solvent.

Structure (SMILES)	etching rate [1] [nm/s]	amount dissolving in 1 g of the IPA/water mixed solvent [2] [µg]	thickness change over etching time (FIG. 3) [1]	ratio (n) of etching rate of release layer (layer B, compound A2) to organic compound layer (layer A, compound 1) ([1]; identical etching conditions)	etching rate ([1]; listed as formula (2)) [nm/s]
O=C1c2ccccc2OC2C=CC(c3cccc(-c4cccc(-c5cc(-c6cccc(-c7ccccc7)c6)cc(-c6cccc(C7C=CC=CC7)c6)c5)c4)c3)=CC12 (stereo not shown) [compound C1]	1.5				
CC1(C)c2ccccc2-c2ccc(-c3ccc4ccc5ccc(-c6ccc7c(c6)C(C)(C)c6ccccc6-7)nc5c4n3)cc21 [compound A2]	0.87	73	reduces over time	about 100	0.9
c1ccc(-c2cc(-c3ccccc3)cc(-c3cccc(-c4cccc(-c5ccc6c7ccccc7c7ccccc7c6c5)c4)c3)c2)cc1 [compound B1]	1.3				
CC1(C)c2cc(-c3ccc4ccc5cccc6ccc3c4c56)ccc2-c2ccc(-c3ccc4ccc5cccc6ccc3c4c56)cc21 [compound 1]	0.008	5	nearly no thickness reduction		
